Experimental data reported in patent publication US20200361914A1, “SUBSTITUTED BENZENE AND 6,5-FUSED BICYCLIC HETEROARYL COMPOUNDS” (Epizyme, Inc., priority 2014, published 2020).
Like-named read-outs stand apart in the source and are kept apart here.

Assays:
[1] = target: wild-type PRC2 enzyme (EZH2 WT) (Homo sapiens, UniProt Q15910); assay: PRC2 enzyme assay on peptide substrate, wild-type EZH2
Text: (§1) S-adenosylmethionine (SAM), S-adenosylhomocyteine (SAH), bicine, KCl, Tween20, dimethylsulfoxide (DMSO) and bovine skin gelatin (BSG) can be purchased from Sigma-Aldrich at the highest level of purity possible. Dithiothreitol (DTT) was purchased from EMD. ^3H-SAM can be purchased from American Radiolabeled Chemicals with a specific activity of 80 C1/mmol. 384-well streptavidin Flashplates can be purchased from PerkinElmer.
(§2) Recombinant PRC2 Enzymes. Human PRC2 enzymes are purified as 4-component enzyme complexes co-expressed in Spodoptera frugiperda (sf9) cells using a baculovirus expression system. […] The EED subunit contains an N-terminal FLAG tag that is used to purify the entire 4-component complex from sf9 cell lysates. The purity of the complexes meets or exceeds 95% as determined by SDS-PAGE and Agilent Bioanalyzer analysis.
(§3) General Procedure for PRC2 Enzyme Assays on Peptide Substrates. The assays are all performed in a buffer consisting of 20 mM bicine (pH=7.6), 0.5 mM DTT, 0.005% BSG and 0.002% Tween20, prepared on the day of use. […] DMSO (1 μL) is added to columns 11, 12, 23, 24, rows A-H for the maximum signal control, and SAH, a known product and inhibitor of PRC2 (1 μL) is added to columns 11, 12, 23, 24, rows I-P for the minimum signal control. A cocktail (40 μL) containing the wild-type PRC2 enzyme and H3K27me0 peptide or any of the Y641 mutant enzymes and H3K27me2 peptide is added by Multidrop Combi (Thermo). The compounds are allowed to incubate with PRC2 for 30 min at 25° C., then a cocktail (10 μL) containing a mixture of non-radioactive and ^3H-SAM is added to initiate the reaction (final volume=51 μL). […] The assays are stopped by the addition of non-radioactive SAM (10 μL) to a final concentration of 600 μM, which dilutes the ^3H-SAM to a level where its incorporation into the peptide substrate is no longer detectable. 50 μL of the reaction in the 384-well polypropylene plate is then transferred to a 384-well Flashplate and the biotinylated peptides are allowed to bind to the streptavidin surface for at least 1h before being washed three times with 0.1% Tween20 in a Biotek ELx405 plate washer. The plates are then read in a PerkinElmer TopCount platereader to measure the quantity of ^3H-labeled peptide bound to the Flashplate surface, measured as disintegrations per minute (dpm) or alternatively, referred to as counts per minute (cpm).
(§4) Where dpm=disintegrations per minute, cmpd=signal in assay well, and min and max are the respective minimum and maximum signal controls.
(§5) Where top and bottom are the normally allowed to float, but may be fixed at 100 or 0 respectively in a 3-parameter fit. The Hill Coefficient normally allowed to float but may also be fixed at 1 in a 3-parameter fit. Y is the % inhibition and X is the compound concentration.

[2] = target: Y641 mutant PRC2 enzyme (EZH2 Y641) (Homo sapiens, UniProt Q15910, Y641F); assay: PRC2 enzyme assay on peptide substrate, Y641 mutant EZH2
Sequence of Y641 mutant PRC2 enzyme (EZH2 Y641) (Q15910 whole entry Y641F): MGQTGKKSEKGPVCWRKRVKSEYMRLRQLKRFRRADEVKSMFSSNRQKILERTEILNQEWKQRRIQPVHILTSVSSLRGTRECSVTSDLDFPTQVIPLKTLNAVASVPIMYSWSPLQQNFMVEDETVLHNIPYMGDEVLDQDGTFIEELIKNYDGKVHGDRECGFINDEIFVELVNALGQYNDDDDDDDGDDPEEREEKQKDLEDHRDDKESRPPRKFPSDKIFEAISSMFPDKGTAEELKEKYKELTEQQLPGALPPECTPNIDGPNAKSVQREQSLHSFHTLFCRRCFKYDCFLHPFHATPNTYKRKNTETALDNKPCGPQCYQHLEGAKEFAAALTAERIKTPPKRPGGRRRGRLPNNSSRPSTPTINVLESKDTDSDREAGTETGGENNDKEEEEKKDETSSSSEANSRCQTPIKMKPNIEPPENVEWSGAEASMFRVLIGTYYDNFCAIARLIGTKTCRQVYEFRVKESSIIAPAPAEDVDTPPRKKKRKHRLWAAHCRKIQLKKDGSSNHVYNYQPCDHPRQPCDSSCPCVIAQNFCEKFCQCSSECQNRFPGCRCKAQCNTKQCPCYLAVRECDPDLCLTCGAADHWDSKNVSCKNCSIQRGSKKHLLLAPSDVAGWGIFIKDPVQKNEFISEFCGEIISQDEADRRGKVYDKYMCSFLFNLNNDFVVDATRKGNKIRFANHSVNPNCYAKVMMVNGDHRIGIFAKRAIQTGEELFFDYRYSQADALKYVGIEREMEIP
Sequence of Y641 mutant PRC2 enzyme (EZH2 Y641) (O75530 whole entry partner): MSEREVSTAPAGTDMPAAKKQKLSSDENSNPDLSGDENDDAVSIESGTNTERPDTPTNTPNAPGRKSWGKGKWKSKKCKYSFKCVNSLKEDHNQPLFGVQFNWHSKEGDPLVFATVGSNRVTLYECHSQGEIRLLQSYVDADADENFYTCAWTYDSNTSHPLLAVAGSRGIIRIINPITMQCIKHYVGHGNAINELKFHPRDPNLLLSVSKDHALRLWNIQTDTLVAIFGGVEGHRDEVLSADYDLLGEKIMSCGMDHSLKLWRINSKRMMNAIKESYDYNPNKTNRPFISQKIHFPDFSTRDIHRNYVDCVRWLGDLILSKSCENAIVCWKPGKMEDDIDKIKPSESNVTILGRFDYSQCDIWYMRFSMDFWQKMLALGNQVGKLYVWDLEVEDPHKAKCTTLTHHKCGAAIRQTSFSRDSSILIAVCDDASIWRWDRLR
Sequence of Y641 mutant PRC2 enzyme (EZH2 Y641) (Q15022 whole entry partner): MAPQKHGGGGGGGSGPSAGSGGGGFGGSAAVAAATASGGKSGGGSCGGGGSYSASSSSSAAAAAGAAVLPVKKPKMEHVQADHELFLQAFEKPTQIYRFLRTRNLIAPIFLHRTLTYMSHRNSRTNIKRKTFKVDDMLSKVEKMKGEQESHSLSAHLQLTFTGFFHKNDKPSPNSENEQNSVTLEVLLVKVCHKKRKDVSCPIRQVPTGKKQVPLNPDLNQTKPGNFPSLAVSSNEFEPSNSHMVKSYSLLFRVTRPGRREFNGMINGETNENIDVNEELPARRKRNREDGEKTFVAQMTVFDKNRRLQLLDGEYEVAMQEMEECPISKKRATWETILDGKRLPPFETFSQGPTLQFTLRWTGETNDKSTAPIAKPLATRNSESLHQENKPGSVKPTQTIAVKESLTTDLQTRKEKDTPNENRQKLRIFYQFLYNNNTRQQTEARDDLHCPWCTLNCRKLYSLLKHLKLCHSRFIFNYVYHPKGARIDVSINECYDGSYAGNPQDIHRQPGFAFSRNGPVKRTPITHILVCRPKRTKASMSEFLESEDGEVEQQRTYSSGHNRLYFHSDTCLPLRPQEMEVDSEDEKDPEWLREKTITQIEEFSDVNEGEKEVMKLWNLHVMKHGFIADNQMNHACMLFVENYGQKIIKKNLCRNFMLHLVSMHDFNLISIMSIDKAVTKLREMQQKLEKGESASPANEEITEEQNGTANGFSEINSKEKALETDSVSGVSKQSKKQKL
Sequence of Y641 mutant PRC2 enzyme (EZH2 Y641) (Q09028 whole entry partner): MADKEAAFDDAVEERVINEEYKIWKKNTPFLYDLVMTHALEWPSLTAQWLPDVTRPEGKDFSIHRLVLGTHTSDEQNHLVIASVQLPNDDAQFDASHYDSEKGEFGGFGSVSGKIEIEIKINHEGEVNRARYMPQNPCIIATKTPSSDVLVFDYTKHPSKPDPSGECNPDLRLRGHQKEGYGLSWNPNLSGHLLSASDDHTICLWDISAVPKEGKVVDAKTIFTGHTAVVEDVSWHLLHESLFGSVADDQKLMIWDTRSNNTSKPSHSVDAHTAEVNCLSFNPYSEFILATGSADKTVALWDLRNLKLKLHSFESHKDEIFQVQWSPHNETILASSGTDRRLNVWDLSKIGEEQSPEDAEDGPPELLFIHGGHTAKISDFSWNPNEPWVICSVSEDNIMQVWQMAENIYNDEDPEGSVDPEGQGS
Text: as §1, §2, §3, §4, §5

[3] = EZH2 WT IC50 (μM), wild-type PRC2 enzyme, H3K27me0 peptide substrate
[4] = EZH2 Y641 IC50 (μM), Y641 mutant EZH2 such as Y641F, H3K27me2 peptide substrate

Sequence of wild-type PRC2 enzyme (EZH2 WT) (Q15910 whole entry): as the sequence (Q15910 whole entry Y641F) above, with F641Y counted along it
Sequence of wild-type PRC2 enzyme (EZH2 WT) (O75530 whole entry partner): as the sequence (O75530 whole entry partner) above
Sequence of wild-type PRC2 enzyme (EZH2 WT) (Q15022 whole entry partner): as the sequence (Q15022 whole entry partner) above
Sequence of wild-type PRC2 enzyme (EZH2 WT) (Q09028 whole entry partner): as the sequence (Q09028 whole entry partner) above

Compound | IC50 [1] [µM] | IC50 [2] [µM] | IC50 [1, 3] [µM] | IC50 [2, 4] [µM]
COc1c(CNC(=O)c2ccc(C(C)Oc3ccccc3)c(Cl)c2)c(C)nn1C (stereo not drawn) [compound 2, 3-chloro-N-((5-methoxy-1,3-dimethyl-1H-pyrazol-4-yl)methyl)-4-(1-phenoxyethyl)benzamide] | > 50 | > 50 | – | –
Cc1[nH]n(C)c(=O)c1CNC(=O)c1ccc(C(C)Oc2ccccc2)c(Cl)c1 (stereo not drawn) [compound 3, 3-chloro-N-((2,5-dimethyl-3-oxo-2,3-dihydro-1H-pyrazol-4-yl)methyl)-4-(1-phenoxyethyl)benzamide] | > 50 | > 50 | – | –
Cc1c(CNC(=O)c2ccc(C(C)Oc3ccccc3)c(Cl)c2)c(=O)[nH]n1C (stereo not drawn) [compound 4, 3-chloro-N-((1,5-dimethyl-3-oxo-2,3-dihydro-1H-pyrazol-4-yl)methyl)-4-(1-phenoxyethyl)benzamide] | > 50 | > 50 | – | –
COc1c(CNC(=O)c2ccc(C(C)Oc3ccccc3)cc2C)c(C)nn1C (stereo not drawn) [compound 7, N-((5-methoxy-1,3-dimethyl-1H-pyrazol-4-yl)methyl)-2-methyl-4-(1-phenoxyethyl)benzamide] | > 50 | > 50 | – | –
Cc1cc(C(C)Oc2ccccc2)ccc1C(=O)NCc1c(C)n(C)[nH]c1=O (stereo not drawn) [compound 8, N-((1,5-dimethyl-3-oxo-2,3-dihydro-1H-pyrazol-4-yl)methyl)-2-methyl-4-(1-phenoxyethyl)benzamide] | > 50 | > 50 | – | –
COc1nn(C)c(C)c1CNC(=O)c1cc(Cl)c(C(C)Oc2ccccc2)cc1C (stereo not drawn) [compound 9, 5-chloro-N-((3-methoxy-1,5-dimethyl-1H-pyrazol-4-yl)methyl)-2-methyl-4-(1-phenoxyethyl)benzamide] | > 50 | > 50 | – | –
Cc1cc(C(C)Oc2ccccc2)c(Cl)cc1C(=O)NCc1c(C)n(C)[nH]c1=O (stereo not drawn) [compound 10, 5-chloro-N-((1,5-dimethyl-3-oxo-2,3-dihydro-1H-pyrazol-4-yl)methyl)-2-methyl-4-(1-phenoxyethyl)benzamide] | 10 to 50 | 10 to 50 | – | –
Cc1cc(=O)c(CNC(=O)c2cc(Cl)c(C(C)Oc3ccccc3)cc2C)c(C)[nH]1 (stereo not drawn) [compound 11, 5-chloro-N-((2,6-dimethyl-4-oxo-1,4-dihydropyridin-3-yl)methyl)-2-methyl-4-(1-phenoxyethyl)benzamide] | 10 to 50 | 1 to 10 | – | –
Cc1cc(=O)c(CNC(=O)c2ccc(Oc3cccc(-c4ccnnc4)c3C#N)c(Cl)c2)c(C)[nH]1 [compound 13, 3-chloro-4-(2-cyano-3-(pyridazin-4-yl)phenoxy)-N-((2,6-dimethyl-4-oxo-1,4-dihydropyridin-3-yl)methyl)benzamide] | 10 to 50 | 1 to 10 | – | –
COc1nn(C)c(C)c1CNC(=O)c1ccc(Oc2cccc(-c3ccnnc3)c2C#N)c(Cl)c1 [compound 14, 3-chloro-4-(2-cyano-3-(pyridazin-4-yl)phenoxy)-N-((3-methoxy-1,5-dimethyl-1H-pyrazol-4-yl)methyl)benzamide] | > 50 | > 50 | – | –
Cc1c(CNC(=O)c2ccc(Oc3cccc(-c4ccnnc4)c3C#N)c(Cl)c2)c(=O)[nH]n1C [compound 15, 3-chloro-4-(2-cyano-3-(pyridazin-4-yl)phenoxy)-N-((1,5-dimethyl-3-oxo-2,3-dihydro-1H-pyrazol-4-yl)methyl)benzamide] | 10 to 50 | 10 to 50 | – | –
COc1nn(C)c(C)c1CNC(=O)c1cc(Cl)c(Oc2cccc(-c3ccnnc3)c2C#N)cc1C [compound 17, 5-chloro-4-(2-cyano-3-(pyridazin-4-yl)phenoxy)-N-((3-methoxy-1,5-dimethyl-1H-pyrazol-4-yl)methyl)-2-methylbenzamide] | > 50 | > 50 | – | –
Cc1cc(Oc2cccc(-c3ccnnc3)c2C#N)c(Cl)cc1C(=O)NCc1c(C)n(C)[nH]c1=O [compound 18, 5-chloro-4-(2-cyano-3-(pyridazin-4-yl)phenoxy)-N-((1,5-dimethyl-3-oxo-2,3-dihydro-1H-pyrazol-4-yl)methyl)-2-methylbenzamide] | 1 to 10 | 1 to 10 | – | –
COc1nn(C)c(C)c1CNC(=O)c1c(C)n(C(C)C2CCOCC2)c2ccccc12 (stereo not drawn) [compound 22, N-((3-methoxy-1,5-dimethyl-1H-pyrazol-4-yl)methyl)-2-methyl-1-(1-(tetrahydro-2H-pyran-4-yl)ethyl)-1H-indole-3-carboxamide] | – | – | > 50 | > 50
Cc1c(CNC(=O)c2c(C)n(C(C)C3CCOCC3)c3ccccc23)c(=O)[nH]n1C (stereo not drawn) [compound 23, N-((1,5-dimethyl-3-oxo-2,3-dihydro-1H-pyrazol-4-yl)methyl)-2-methyl-1-(1-(tetrahydro-2H-pyran-4-yl)ethyl)-1H-indole-3-carboxamide] | – | – | > 50 | 10 to 50
CCC(C)n1cc(C)c2c(C(=O)NCc3c(OC)nn(C)c3C)cc(-c3ccc(N4CCNCC4)nc3)cc21 (stereo not drawn) [compound 27, 1-(sec-butyl)-N-((3-methoxy-1,5-dimethyl-1H-pyrazol-4-yl)methyl)-3-methyl-6-(6-(piperazin-1-yl)pyridin-3-yl)-1H-indole-4-carboxamide] | 1 to 10 | 0.1 to 1 | – | –
CCC(C)n1cc(C)c2c(C(=O)NCc3c(C)n(C)[nH]c3=O)cc(-c3ccc(N4CCNCC4)nc3)cc21 (stereo not drawn) [compound 28, 1-(sec-butyl)-N-((1,5-dimethyl-3-oxo-2,3-dihydro-1H-pyrazol-4-yl)methyl)-3-methyl-6-(6-(piperazin-1-yl)pyridin-3-yl)-1H-indole-4-carboxamide] | 10 to 50 | 1 to 10 | – | –
CCC(C)n1cc(C)c2c(C(=O)NCc3c(OC)nn(CC)c3C)cc(-c3ccc(N4CCNCC4)nc3)cc21 (stereo not drawn) [compound 29, 1-(sec-butyl)-N-((1-ethyl-3-methoxy-5-methyl-1H-pyrazol-4-yl)methyl)-3-methyl-6-(6-(piperazin-1-yl)pyridin-3-yl)-1H-indole-4-carboxamide] | 1 to 10 | 1 to 10 | – | –
CCN(c1cc(Cl)cc(C(=O)NC2CC(C)(C)NC(C)(C)C2)c1C)[C@H]1CC[C@H](N(C)C)CC1 [compound 31, 5-chloro-3-(((trans)-4-(dimethylamino)cyclohexyl)(ethyl)amino)-2-methyl-N-(2,2,6,6-tetramethylpiperidin-4-yl)benzamide] | > 50 | > 50 | – | –
CCN(c1cc(Cl)cc(C(=O)NC2CC(C)(C)NC(C)(C)C2)c1C)[C@H]1CC[C@H](N(C)CCOC)CC1 [compound 32, 5-chloro-3-(ethyl((trans)-4-((2-methoxyethyl)-(methyl)-amino)-cyclohexyl)amino)-2-methyl-N-(2,2,6,6-tetramethylpiperidin-4-yl)benzamide] | > 50 | > 50 | – | –
CCN(c1cc(-c2ccc(OCCOC)cc2)cc(C(=O)NC2CC(C)(C)NC(C)(C)C2)c1C)C1CCOCC1 [compound 34, 5-(ethyl(tetrahydro-2H-pyran-4-yl)amino)-4′-(2-methoxyethoxy)-4-methyl-N-(2,2,6,6-tetramethylpiperidin-4-yl)-[1,1′-biphenyl]-3-carboxamide] | > 50 | > 50 | – | –
